Experimental data taken from ChEMBL document CHEMBL1201862, “PubChem BioAssay data set” (2004).
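A five-concentration, 48-hour dose response in 96-well plates underlies each endpoint, interpolated linearly between surrounding concentrations. The concentration for 50% growth inhibition is given as GI50.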 Activity calls are given as the source filed them. Rule as the data show it: active = GI50 up to about 1.1 µM and inactive = higher.

What was measured:
Assay in all cases: NCI tumour cell line growth inhibition, 48 h
[1] = test system: A498
[2] = test system: ACHN
[3] = test system: CAKI-1
[4] = test system: COLO 205
[5] = test system: HCT-116
[6] = test system: HCT-15
[7] = test system: HOP-62
[8] = test system: Hs-578T
[9] = test system: LOX IMVI
[10] = test system: MDA-N
[11] = test system: NCI-H522
[12] = test system: NCI/ADR-RES
[13] = test system: RPMI-8226
[14] = test system: RXF 393
[15] = test system: SF-295
[16] = test system: SK-MEL-5
[17] = test system: SNB-19
[18] = test system: SNB-75
[19] = test system: UACC-62
[20] = test system: UO-31

SMILES | GI50 [1] | GI50 [2] | GI50 [3] | GI50 [4] | GI50 [5] | GI50 [6] [µM] | GI50 [7] | GI50 [8] | GI50 [9] | GI50 [10] | GI50 [11] | GI50 [12] | GI50 [13] | GI50 [14] | GI50 [15] | GI50 [16] | GI50 [17] | GI50 [18] | GI50 [19] | GI50 [20]
CCOC(=O)c1sc2c(c1OC(=O)c1cc(OC)c(OC)c(OC)c1)c(=O)n(-c1ccccc1)c(=S)n2-c1ccccc1 | > 100 µM (inactive) | > 100 µM (inactive) | > 100 µM (inactive) | > 100 µM (inactive) | > 100 µM (inactive) | 47.3 | > 100 µM (inactive) | 51.2 µM (inactive) | > 100 µM (inactive) | > 100 µM (inactive) | 4.81 µM (inactive) | 75.3 µM (inactive) | 93.1 µM (inactive) | > 100 µM (inactive) | > 100 µM (inactive) | > 100 µM (inactive) | > 100 µM (inactive) | > 100 µM (inactive) | 51.8 µM (inactive) | 
O=S(=O)(O)c1ccc2c(/N=N/c3c(O)ccc4ccccc34)cccc2c1 | > 100 µM (inactive) | > 100 µM (inactive) | > 100 µM (inactive) | > 100 µM (inactive) | > 100 µM (inactive) | > 100 | > 100 µM (inactive) | > 100 µM (inactive) | > 100 µM (inactive) | > 100 µM (inactive) | > 100 µM (inactive) | > 100 µM (inactive) | > 100 µM (inactive) | > 100 µM (inactive) | > 100 µM (inactive) | > 100 µM (inactive) | > 100 µM (inactive) | > 100 µM (inactive) | > 100 µM (inactive) | > 100 µM (inactive)
Cc1nc2cccc([N+](=O)[O-])c2c(NCCCN(C)C)c1C | 34.8 µM (inactive) | 97.3 µM (inactive) | 32.9 µM (inactive) | 22.3 µM (inactive) | 20.9 µM (inactive) | 26.5 | 28.9 µM (inactive) | > 61.1 µM (inactive) | 84.9 µM (inactive) | 26.7 µM (inactive) | 15.2 µM (inactive) | > 100 µM (inactive) | 34.8 µM (inactive) | 16.1 µM (inactive) | 36.6 µM (inactive) | 35.6 µM (inactive) | > 100 µM (inactive) | 49.7 µM (inactive) | > 100 µM (inactive) | > 100 µM (inactive)
CCOC(=O)C(SCCO)C(C(=O)OCC)n1cc(C)c(=O)[nH]c1=O (stereo unspecified) | 20.4 µM (inactive) | 8.75 µM (inactive) | 4.44 µM (inactive) | 10 µM (inactive) | 7.41 µM (inactive) | 4.41 | > 61.2 µM (inactive) | 63.4 µM (inactive) | 6.84 µM (inactive) | 15.1 µM (inactive) | 3.3 µM (inactive) | 24.8 µM (inactive) | 7.89 µM (inactive) | 17 µM (inactive) | > 79.4 µM (inactive) | 23.2 µM (inactive) | 62.1 µM (inactive) | 34.1 µM (inactive) | 16.3 µM (inactive) | 22.9 µM (inactive)
CCCCOC(=O)C(=O)C(CCC(=O)c1ccc(C)cc1)C(=O)C=C(C)C (stereo unspecified) | > 100 µM (inactive) | > 100 µM (inactive) | > 100 µM (inactive) |  | > 100 µM (inactive) | > 100 | > 100 µM (inactive) | > 100 µM (inactive) | > 100 µM (inactive) | > 100 µM (inactive) | > 100 µM (inactive) | > 100 µM (inactive) | > 100 µM (inactive) | > 100 µM (inactive) | > 100 µM (inactive) | > 100 µM (inactive) | 52.7 µM (inactive) | > 100 µM (inactive) | > 100 µM (inactive) | > 100 µM (inactive)
c1n[nH]cc1C12C3C4C5C3C1C5C42 (stereo unspecified) | > 100 µM (inactive) | > 100 µM (inactive) | > 100 µM (inactive) | > 100 µM (inactive) | > 100 µM (inactive) | > 100 | > 100 µM (inactive) | > 100 µM (inactive) | > 100 µM (inactive) | > 100 µM (inactive) | > 100 µM (inactive) | > 100 µM (inactive) | > 100 µM (inactive) | > 100 µM (inactive) | > 100 µM (inactive) | > 100 µM (inactive) | > 100 µM (inactive) | 69.2 µM (inactive) | > 100 µM (inactive) | > 100 µM (inactive)
CC(C)(C)c1cc(-c2ccc(-c3cc(C(C)(C)C)c(O)c(C(C)(C)C)c3)cc2)cc(C(C)(C)C)c1O | > 100 µM (inactive) | > 100 µM (inactive) | > 100 µM (inactive) | > 100 µM (inactive) | > 100 µM (inactive) | > 100 | > 100 µM (inactive) | > 10 µM (inactive) | > 100 µM (inactive) | > 100 µM (inactive) | > 100 µM (inactive) | > 100 µM (inactive) | > 100 µM (inactive) | > 100 µM (inactive) | > 100 µM (inactive) | > 100 µM (inactive) | > 100 µM (inactive) | > 100 µM (inactive) | > 100 µM (inactive) | > 100 µM (inactive)
COc1ccccc1C(O)[C@@H]1C[C@@H]2[C@H]3CC[C@@](C)([C@@H]2O1)C3(C)C (stereo partly specified) | 15.4 µM (inactive) | 19.1 µM (inactive) | 23.8 µM (inactive) | 19.1 µM (inactive) | 20.5 µM (inactive) | 20.7 | 18.7 µM (inactive) | 14.7 µM (inactive) | 18.4 µM (inactive) | 16.7 µM (inactive) | 17.4 µM (inactive) | 17.5 µM (inactive) | 25.2 µM (inactive) | 17.4 µM (inactive) | 18.4 µM (inactive) | 17.3 µM (inactive) | 22.8 µM (inactive) | 16.9 µM (inactive) | 16.6 µM (inactive) | 17.9 µM (inactive)
CNC(=S)NN=C1NCCCN1 | > 100 µM (inactive) | > 100 µM (inactive) | > 100 µM (inactive) | > 100 µM (inactive) | > 100 µM (inactive) | > 100 | > 100 µM (inactive) | > 100 µM (inactive) | > 100 µM (inactive) | > 100 µM (inactive) | > 100 µM (inactive) | > 100 µM (inactive) | > 100 µM (inactive) | > 100 µM (inactive) | > 100 µM (inactive) | > 100 µM (inactive) | > 100 µM (inactive) | > 100 µM (inactive) | > 100 µM (inactive) | > 100 µM (inactive)
CCCCOC(=O)NC(Nc1cccc(C(F)(F)F)c1)(C(F)(F)F)C(F)(F)F | > 100 µM (inactive) | 47.4 µM (inactive) | 49.2 µM (inactive) | 45.7 µM (inactive) | > 100 µM (inactive) | 45.2 | > 100 µM (inactive) | 44.7 µM (inactive) | 32.1 µM (inactive) | 41.4 µM (inactive) | 56.4 µM (inactive) | 45.3 µM (inactive) | 17.2 µM (inactive) | 50.7 µM (inactive) | 26.6 µM (inactive) | 49.9 µM (inactive) | > 100 µM (inactive) | 33.6 µM (inactive) | 58.5 µM (inactive) | 46.5 µM (inactive)
COc1cc(-c2cc(=O)c3c(OC)c(OC)c(OC)c(OC)c3o2)cc(OC)c1OC [HEPATAMETHOXYFLAVONE] | 21.2 µM (inactive) | 21.9 µM (inactive) | 21.6 µM (inactive) | 18.7 µM (inactive) | 44.8 µM (inactive) | 33.4 | 41.9 µM (inactive) | 29 µM (inactive) | 25.9 µM (inactive) | 42.7 µM (inactive) | 19.1 µM (inactive) | 23.6 µM (inactive) | 26.1 µM (inactive) | 28.1 µM (inactive) | 28.1 µM (inactive) | 12.4 µM (inactive) | 76.6 µM (inactive) | 26.4 µM (inactive) | 21 µM (inactive) | 7.38 µM (inactive)
CCOC(=O)C(=Cc1ccccc1Cl)C(=O)OCC | 2.92 µM (inactive) | 2.61 µM (inactive) | 2.02 µM (inactive) | 1.57 µM (inactive) | 0.558 µM (active) | 1.72 | 2.13 µM (inactive) | 2.89 µM (inactive) | 1.75 µM (inactive) | 1.12 µM (active) | 2.03 µM (inactive) | 2 µM (inactive) | 1.56 µM (inactive) | 1.61 µM (inactive) | 2.47 µM (inactive) | 2.06 µM (inactive) | 1.84 µM (inactive) | 0.0174 µM (active) | 1.69 µM (inactive) | 1.71 µM (inactive)
CN1CCc2c3n(c4cc(Br)ccc24)[C@H](O)CCCC31 (stereo partly specified) | 4.11 µM (inactive) | > 10 µM (inactive) | 2.99 µM (inactive) | 1.78 µM (inactive) | 1.69 µM (inactive) | 2.62 | > 10 µM (inactive) | 2.15 µM (inactive) | 1.74 µM (inactive) | 1.82 µM (inactive) | 1.49 µM (inactive) | 4.97 µM (inactive) | 2.4 µM (inactive) | 2.59 µM (inactive) | 1.77 µM (inactive) | 3.18 µM (inactive) | > 10 µM (inactive) | 2.3 µM (inactive) |  | > 7.52 µM (inactive)
COc1cccc(NC(=O)c2c(N)n[nH]c2SC)c1 | > 100 µM (inactive) | > 100 µM (inactive) | > 100 µM (inactive) | > 100 µM (inactive) | > 100 µM (inactive) | > 100 | > 100 µM (inactive) | > 100 µM (inactive) | > 100 µM (inactive) | > 100 µM (inactive) | > 100 µM (inactive) | > 100 µM (inactive) | 84.9 µM (inactive) | > 100 µM (inactive) | > 100 µM (inactive) | > 100 µM (inactive) | > 100 µM (inactive) | > 100 µM (inactive) | > 100 µM (inactive) | 
